Laboratory results reported in PubChem BioAssay (NCI).
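Compound exposure: 48 hours, 5 concentrations, 96-well plates. Abbreviation: GI50, concentration required for 50% inhibition of growth. At the TGI there is no net growth.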

Tests used:
Experiment in all cases: NCI tumour cell line growth inhibition, 48 h
NCI-H23 lung = test system: NCI-H23 lung
NCI-H460 lung = test system: NCI-H460 lung
NCI-H522 lung = test system: NCI-H522 lung
NCI/ADR-RES ovarian = test system: NCI/ADR-RES ovarian
OVCAR-3 ovarian = test system: OVCAR-3 ovarian
OVCAR-4 ovarian = test system: OVCAR-4 ovarian
OVCAR-5 ovarian = test system: OVCAR-5 ovarian
OVCAR-8 ovarian = test system: OVCAR-8 ovarian
PC-3 prostate = test system: PC-3 prostate
RPMI-8226 leukemia = test system: RPMI-8226 leukemia
RXF 393 renal = test system: RXF 393 renal
SF-268 CNS = test system: SF-268 CNS
SF-295 CNS = test system: SF-295 CNS
SF-539 CNS = test system: SF-539 CNS
SK-MEL-2 melanoma = test system: SK-MEL-2 melanoma
SK-MEL-28 melanoma = test system: SK-MEL-28 melanoma
SK-MEL-5 melanoma = test system: SK-MEL-5 melanoma
SK-OV-3 ovarian = test system: SK-OV-3 ovarian
SN12C renal = test system: SN12C renal
SNB-19 CNS = test system: SNB-19 CNS
SNB-75 CNS = test system: SNB-75 CNS
SR leukemia = test system: SR leukemia
SW-620 colon = test system: SW-620 colon
T-47D breast = test system: T-47D breast
TK-10 renal = test system: TK-10 renal
U251 CNS = test system: U251 CNS
UACC-257 melanoma = test system: UACC-257 melanoma
UACC-62 melanoma = test system: UACC-62 melanoma
UO-31 renal = test system: UO-31 renal

CC(C)N(Cc1c(F)cccc1F)c1ccc(CO)c(Cl)c1
TGI (NCI-H23 lung): 32.4 µM
GI50 (NCI-H460 lung): 0.134 µM
TGI (NCI-H460 lung): 2.63 µM
GI50 (NCI-H522 lung): 18 µM
TGI (NCI-H522 lung): 35.2 µM
GI50 (NCI/ADR-RES ovarian): 10.9 µM
TGI (NCI/ADR-RES ovarian): 27.9 µM
GI50 (OVCAR-3 ovarian): 0.171 µM
TGI (OVCAR-3 ovarian): 0.565 µM
GI50 (OVCAR-4 ovarian): 0.119 µM
TGI (OVCAR-4 ovarian): 0.832 µM
GI50 (OVCAR-5 ovarian): 0.0702 µM
TGI (OVCAR-5 ovarian): 0.253 µM
GI50 (OVCAR-8 ovarian): 6.65 µM
TGI (OVCAR-8 ovarian): 24.7 µM
GI50 (PC-3 prostate): 12.1 µM
TGI (PC-3 prostate): 26.1 µM
GI50 (RPMI-8226 leukemia): 0.529 µM
TGI (RPMI-8226 leukemia): 27.5 µM
GI50 (RXF 393 renal): 1.63 µM
TGI (RXF 393 renal): 20.6 µM
GI50 (SF-268 CNS): 18.3 µM
TGI (SF-268 CNS): 34.9 µM
GI50 (SF-295 CNS): 0.157 µM
TGI (SF-295 CNS): 2.53 µM
GI50 (SF-539 CNS): 16.8 µM
TGI (SF-539 CNS): 31.8 µM
GI50 (SK-MEL-2 melanoma): 0.848 µM
TGI (SK-MEL-2 melanoma): 21.7 µM
GI50 (SK-MEL-28 melanoma): 13 µM
TGI (SK-MEL-28 melanoma): 26.6 µM
GI50 (SK-MEL-5 melanoma): 12.7 µM
TGI (SK-MEL-5 melanoma): 25.6 µM
GI50 (SK-OV-3 ovarian): 2.64 µM
TGI (SK-OV-3 ovarian): 12.9 µM
GI50 (SN12C renal): 12.1 µM
TGI (SN12C renal): 25.7 µM
GI50 (SNB-19 CNS): 19.1 µM
TGI (SNB-19 CNS): > 52.3 µM
GI50 (SNB-75 CNS): 13 µM
TGI (SNB-75 CNS): 26.6 µM
GI50 (SR leukemia): 19.4 µM
TGI (SR leukemia): 46.6 µM
GI50 (SW-620 colon): 0.355 µM
TGI (SW-620 colon): 18.3 µM
GI50 (T-47D breast): 0.0502 µM
TGI (T-47D breast): 0.216 µM
GI50 (TK-10 renal): 0.0326 µM
TGI (TK-10 renal): 0.145 µM
GI50 (U251 CNS): 0.228 µM
TGI (U251 CNS): 17.3 µM
GI50 (UACC-257 melanoma): 0.0582 µM
TGI (UACC-257 melanoma): 0.195 µM
GI50 (UACC-62 melanoma): 0.0748 µM
TGI (UACC-62 melanoma): 0.398 µM
GI50 (UO-31 renal): 3.14 µM
TGI (UO-31 renal): 25 µM
